The values that follow come from paper PMC10313070, “Design, in silico and pharmacological evaluation of a peptide inhibitor of BACE-1” (Frontiers in Pharmacology, 2023).

Entries after “also recorded” stand apart in the source; their conditions may differ. No end group written: not given here.

In one data set the test system is SH-SY5Y cells. On the set-up: method as in Lee et al., 2019. Conditions: ref Lee et al., 2019; cited from earlier work.
Data set [1] deals with BACE-1. Set-up: method as in Lee et al., 2019. Conditions: ref Lee et al., 2019; cited from earlier work.
The nature of data set [2]: Histology of organs and toxicity after peptide injection. In kind it is in vivo, mice. The text has this:
Organs were removed and immediately fixed in Bouin’s solution for processing by dehydration ethanol sessions and historesin embedding to obtain 3 µm thick transversal slides. Sections were stained with hematoxylin–eosin and examined using a light microscope for a qualitative analysis.

The next data set concerns the target T1, recombinant BACE-1 (Homo sapiens, UniProt P56817).
T1 construct: purchased Sigma-Aldrich MAK237
In words: Enzymatic kinetics on recombinant BACE-1 (Lineweaver-Burk). The settings on record: 10 μM peptide, substrate 0–32 µM. In kind it is biochemical. The protocol: The peptide was commercially obtained (manufactured by Biotik, commercialized by FastBio, Brazil) and synthetized by the solid phase with >95% purity. The peptide was tested using an enzymatic kinetics model, in which 10 μM of peptide (diluted in 0.9% saline solution) was incubated with recombinant BACE-1 and reaction buffer for 15 min at room temperature (MAK237, Sigma-Aldrich, St Louis, MO, United States). After that, H-Arg-Glu (EDANS)[…](DABCYL)Arg-OH quencher substrate (0–32 µM) was added to the reaction mixture. Readings were taken using a fluorimeter (Glomax, Promega, Madison, WI, United States) every 5 min at 37° in a λex = 335 and λem = 510. Experiments were conducted in triplicate in two independent sets, and the mean of fluorescence was obtained for further calculations. The velocity of the reaction was calculated as ∆ fluorescence values at ∆ time for each substrate concentration. 1/V and 1/S values were obtained and plotted in a graph (Lineweaver–Burk plot), and kinetic parameters (slope, Vmax, Km, and Ki) were calculated as the mean ± SD using GraphPad Prism v5.

A further data set can be described thus: in vivo. On the set-up: species or system mice. Conditions: mouse. As to the method:
Authorization for pharmacokinetics analyses was obtained from the Ethics Committee of Instituto Butantan (CEUAIB 58872400322), where the experiments with animals were carried out. Healthy adult male Swiss mice weighing approximately 25 g were used. All animals were placed in microisolators for a 12-h light/dark cycle, 70% humidity, and a constant average temperature (22°C).
(§1) A single dose of the peptide diluted in sterile PBS (pH 7.4) was injected intravenously in the bolus into the caudal vein of mice (n = 3) at a concentration of 4 mg/kg (0.2 mL). A group of animals (n = 3) received the sterile saline solution for the plasma and organ control, without the peptide (named ‘basal’). Blood was taken after 0, 5, and 30 min and 2, 6, and 24 h after injection. At these times, blood was collected via the retro-orbital route using a Pasteur pipette and dispensed into plastic tubes containing EDTA. The final blood volume was subjected to centrifugation at 1,500 rpm for 10 min at room temperature to obtain plasma, which was stored in a −80°C freezer until the analysis.
(§2) Both plasma and organs (150 μL) were incubated with 100 mM DL-dithiothreitol at room temperature for 30 min; after that, they were incubated to 300 mM iodoacetamide at room temperature for another 30 min in the dark. Subsequently, 150 μL of 0.1% formic acid solution and 400 μL of Milli-Q water were added and agitated for 5 min. The samples were then submitted to solid-phase extraction using a C18 cartridge (Supelco) with elution in a 60:40 acetonitrile:water solution (v/v). The eluate was inserted by mass spectrometry for analysis and quantification.
(§3) The determination and quantification of the peptide in plasma and organs of mice were performed by liquid chromatography (UPLC system, Waters Co.) coupled to mass spectrometry ESI-Xevo TQ-S (Waters Co., United States). The samples were inserted in a C18 column (Luna, 5 μm, 150 × 4.6 mm, Phenomenex) and eluted by 70% methanol in water, containing 0.05% formic acid in a constant flow of 0.3 mL/min. The ion was monitored at the positive ionization mode, 150°C source temperature, 550°C desolvation temperature, 800 L/h desolvation gas flow, 2 kV for capillary, and […] cone voltage. Data were acquired and analyzed using MassLynx 4.
(§4) To define the relationship between the instrument response and the known concentration of the peptide, a calibration curve with six points of the peptide (0.1–20 μg/mL for plasma and 5–40 μg/mL for organs) was generated in a range defined according to the sensitivity of the method and the expected concentrations of the samples in animals (based on the amount of peptide injected).
Each analysis lot contained the following samples: a calibration curve consisting of a blank sample (peptide-free biological matrix), samples containing peptide standard, and plasma or organ samples. Calibration functions were calculated using the peak areas of the peptide. The peptide concentrations in the samples were calculated from the weighted linear regression equation (1/×2) obtained from the calibration curve (peptide concentration as the function of the area). This regression model (1/×2) was used because of the amplitude of the calibration curve.
(§5) The plasma concentration (Cp), in µg/L, was determined by mass spectrometric analysis, and then, area data were analyzed using the PKSolver add-in program for Microsoft Excel. Pharmacokinetics parameters as the natural logarithm of Cp (lnCp), Cp0, half-life, and clearance were calculated in a compartmental analysis of plasma data after the intravenous bolus input ([Zhang et al., 2010]). For organs, data are present as mean ± SD for each point.

The nature of data set [3]: Peptide quantification in mouse organs by mass spectrometry. In kind it is in vivo. The settings on record: mice, 4 mg/kg i.v. The protocol: as §1
Moreover, organs were obtained at the same times, after a lethal injection of anesthetics (ketamine 300 mg/kg and xylazine 30 mg/kg). The organs collected included the brain, pancreas, spleen, kidneys, lungs, and liver. The organs were washed with the saline solution to remove excess blood, frozen in liquid nitrogen, and kept at −80°C until use. For the experiments, organs were submerged in 1 mL of 50 mM PBS with pH 7.5 containing peptidases inhibitors (aprotinin, bestatin, E-64, leupeptin, and pepstatin A, a protease inhibitor cocktail, Sigma-Aldrich) and lysed in a tissue and cell disruptor (ULTRA-TURRAX IKA, Staufen, Germany). The lysate was centrifuged for 2 min at 13,200 rpm at 4°C, and the supernatant resulting from centrifugation was stored in a −80°C freezer until the analysis.
as §2, §3, §4, §5

The subject of data set [4] is BACE-1. Set-up: method as in Wu et al., 2016. Conditions: ref Wu et al., 2016; cited from earlier work.

T1 sequence (P56817 46-501): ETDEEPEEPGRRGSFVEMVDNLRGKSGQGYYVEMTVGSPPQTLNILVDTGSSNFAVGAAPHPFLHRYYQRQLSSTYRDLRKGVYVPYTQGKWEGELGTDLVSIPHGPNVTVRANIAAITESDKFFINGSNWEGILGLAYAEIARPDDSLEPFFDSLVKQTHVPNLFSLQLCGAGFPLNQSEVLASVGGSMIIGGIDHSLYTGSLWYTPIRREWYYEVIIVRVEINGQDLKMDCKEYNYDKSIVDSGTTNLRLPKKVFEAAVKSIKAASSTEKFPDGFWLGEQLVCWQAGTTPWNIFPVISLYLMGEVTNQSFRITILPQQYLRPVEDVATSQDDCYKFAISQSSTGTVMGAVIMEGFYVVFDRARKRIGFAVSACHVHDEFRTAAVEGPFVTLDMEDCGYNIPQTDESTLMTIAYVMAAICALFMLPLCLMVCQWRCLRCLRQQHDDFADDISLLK

In the case of Leu–Asn, the “Aβ production in SH-SY5Y cells” value in the data set with SH-SY5Y cells was “reducing the Aβ production”. The “BACE-1 inhibitory activity among fragments derived from the original peptide” value in the data set on BACE-1 [1] is given as “most potent activity”.

For the substance SLAFVDVLN [peptide], the “Clinical signals of toxicity” value in data set [2] (mice, single dose) is reported as “no clinical signals of toxicity were observed”. Besides, the “Histological alterations (cell/tissue morphology, inflammatory infiltrate)” value in data set [2] (spleen, liver, pancreas, lungs, kidneys, 5 and 30 min, 2 and 6 h after single 4 mg/kg i.v. dose, 4 mg/kg) is “no morphological alteration in any organ; also recorded: No alterations were detected”. Moreover, the Ki at recombinant BACE-1 turned out to be 94 nM. In “in vivo” (male, Swiss, iv, 4 mg/kg), this substance registered an AUC(0-inf) of 2600 ng·h/mL, an AUC(0-t) of 2600 ng·h/mL, a C0 of 2600 ng/mL and an MRT of 1 h. Besides, in the data set “in vivo” (male, Swiss, iv, 4 mg/kg, t1/2), the half-life is ~1 h. In the data set “in vivo”, this substance displayed a Vss of 0.0015 and a clearance of 0.0015. The “Enzymatic cleavage of the peptide in vivo (intact mass, fragments by mass spectrometry)” value in “in vivo” (iv) is reported as “no enzymatic cleavage”. In addition, in the data set “in vivo” (iv, 4 mg/kg), the AUMC is listed as 2,595.96 μg/L*h^2, the CL is reported as 0.00154 (mg/kg)/(μg/L)/h, the V is reported as 0.00154 (mg/kg)/(μg/L) and the Vss is listed as 0.0015 mg/kg/(μg/L). In data set [3], the “Peptide concentration in the kidneys over time” value was “increased 30 min after the injection, slightly decreased after 2 h, but increased after 6 h”; the “Time of peak of the peptide in the brain” value is reported as 2 h; the “Time of peak of the peptide in the liver” value is on record as 30 min; the “Time of peak of the peptide in the spleen” value worked out at 30 min. Besides, the “Time the peptide could be found in the brain” value in data set [3] is “up to 6 h”. For the same substance, the “Peptide concentration in the lungs” value in data set [3] (5 min after injection) is “high concentration”. Also, the “Peptide in the pancreas” value in data set [3] (4 mg/kg) is “not possible to identify; also recorded: could not be found”.

As to pyrazinecarboxamide, the IC50 in the data set with BACE-1 [4] is < 1 nM.

Usually Ki stands for the equilibrium dissociation constant of an inhibitor or competing ligand from its target. As a reminder, the AUC(0-inf) is total exposure, with the tail of the curve extrapolated. By AUC(0-t) is commonly meant the area under the concentration-time curve up to a stated or last time point. A high value points to more exposure. By MRT is commonly meant the average time that molecules of a dose stay in the body. A word on the half-life: it is how long it takes for the measured level to halve. Higher therefore signals slow loss. Broadly, the IC50 is the concentration that inhibits the measured activity by half.
